Reference: patent US7378435B2, “Aryl-isoxazole-4-carbonyl-indole-carboxylic acid amide derivatives” (Hoffmann-La Roche Inc., priority 2005, dated 2008)
Read-outs that look alike come from different tables or passages of the source.

Target: T1, GABA A receptor α5β3γ2 (Homo sapiens, UniProt P18507+P31644)
T1 construct: expressed in transfected cells; host or cells: HEK293 (transiently transfected for the human receptors)
Assay: [3H]flumazenil competition binding, human GABA A α5β3γ2 receptors expressed in HEK293 cells
Conditions: mean of two determinations
Procedure: The affinity of compounds at GABA A receptor subtypes was measured by competition for [3H]flumazenil (85 Ci/mmol; Roche) binding to HEK293 cells expressing rat (stably transfected) or human (transiently transfected) receptors of composition α1β3γ2, α2β3γ2, α3β3γ2 and α5β3γ2.
Cell pellets were suspended in Krebs-tris buffer (4.8 mM KCl, 1.2 mM CaCl2, 1.2 mM MgCl2, 120 mM NaCl, 15 mM Tris; pH 7.5; binding assay buffer), homogenized by polytron for ca. 20 sec on ice and centrifuged for 60 min at 4° C. (50000 g; Sorvall, rotor: SM24=20000 rpm). The cell pellets were resuspended in Krebs-tris buffer and homogenized by polytron for ca. 15 sec on ice. Protein was measured (Bradford method, Bio-Rad) and aliquots of 1 mL were prepared and stored at −80° C.
Radioligand binding assays were carried out in a volume of […] (96-well plates) which contained […] of cell membranes, [3H]flumazenil at a concentration of 1 nM for α1, α2, α3 subunits and 0.5 nM for α5 subunits and the test compound in the range of […]. Nonspecific binding was defined by 10^−5 M diazepam and typically represented less than 5% of the total binding. Assays were incubated to equilibrium for 1 hour at 4° C. and harvested onto GF/C uni-filters (Packard) by filtration using a Packard harvester and washing with ice-cold wash buffer (50 mM Tris; pH 7.5). After drying, filter-retained radioactivity was detected by liquid scintillation counting. Ki values were calculated using Excel-Fit (Microsoft) and are the means of two determinations.

[1] = human α5β3γ2, 0.5 nM [3H]flumazenil, read-out: Ki[μM] hα5
[2] = Table 1, human α5, [3H]flumazenil, read-out: Ki h

Structure (SMILES) | Ki [1] | Ki [2]
Cc1onc(-c2ccc(F)cc2)c1C(=O)c1c[nH]c2cc(C(=O)NCC3CC3)ccc12 [Example 1, 3-[3-(4-Fluoro-phenyl)-5-methyl-isoxazole-4-carbonyl]-1H-indole-6-carboxylic acid cyclopropylmethyl-amide] | 0.00645 µM | 
Cc1onc(-c2ccccc2)c1C(=O)c1c[nH]c2cc(C(=O)NCC3CC3)ccc12 [Example 2, 3-(5-Methyl-3-phenyl-isoxazole-4-carbonyl)-1H-indole-6-carboxylicacidcyclopropylmethyl-amide] | 0.00545 µM | 0.00545 µM
C#CCNC(=O)c1ccc2c(C(=O)c3c(-c4ccccc4)noc3C)c[nH]c2c1 [Example 3, 3-(5-Methyl-3-phenyl-isoxazole-4-carbonyl)-1H-indole-6-carboxylicacid prop-2-ynylamide] | 0.0029 µM | 0.0029 µM
Cc1onc(-c2ccccc2)c1C(=O)c1c[nH]c2cc(C(=O)NCCc3cnc[nH]3)ccc12 [Example 4, 3-(5-Methyl-3-phenyl-isoxazole-4-carbonyl)-1H-indol-6-carboxylicacid [2-(1H-imidazol-4-yl)-ethyl]-amide] | 0.00265 µM | 0.00265 µM
Cc1onc(-c2ccccc2)c1C(=O)c1c[nH]c2cc(C(=O)NCc3ccccn3)ccc12 [Example 5, 3-(5-Methyl-3-phenyl-isoxazole-4-carbonyl)-1H-indole-6-carboxylicacid (pyridin-2-ylmethyl)-amide] | 0.00395 µM | 0.00395 µM
Cc1onc(-c2ccccc2)c1C(=O)c1c[nH]c2cc(C(=O)NCCN3CCOCC3)ccc12 [Example 6, 3-(5-Methyl-3-phenyl-isoxazole-4-carbonyl)-1H-indole-6-carboxylicacid (2-morpholin-4-yl-ethyl)-amide] | 0.0033 µM | 0.0033 µM
Cc1onc(-c2ccccc2)c1C(=O)c1c[nH]c2cc(C(=O)NCc3ccco3)ccc12 [Example 7, 3-(5-Methyl-3-phenyl-isoxazole-4-carbonyl)-1H-indole-6-carboxylicacid (furan-2-ylmethyl)-amide] | 0.0053 µM | 0.0053 µM
Cc1onc(-c2ccccc2)c1C(=O)c1c[nH]c2cc(C(=O)NC3CC3)ccc12 [Example 8, 3-(5-Methyl-3-phenyl-isoxazole-4-carbonyl)-1H-indole-6-carboxylicacidcyclopropylamide] | 0.003 µM | 0.003 µM
Cc1onc(-c2ccccc2)c1C(=O)c1c[nH]c2cc(C(=O)NC3CCC3)ccc12 [Example 9, 3-(5-Methyl-3-phenyl-isoxazole-4-carbonyl)-1H-indole-6-carboxylicacidcyclobutylamide] | 0.00435 µM | 0.00435 µM
Cc1onc(-c2ccccc2)c1C(=O)c1c[nH]c2cc(C(=O)NC3CCCC3)ccc12 [Example 10, 3-(5-Methyl-3-phenyl-isoxazole-4-carbonyl)-1H-indole-6-carboxylicacidcyclopentylamide] |  | 0.0137 µM
Cc1onc(-c2ccccc2)c1C(=O)c1c[nH]c2cc(C(=O)NC3CCOCC3)ccc12 [Example 11, 3-(5-Methyl-3-phenyl-isoxazole-4-carbonyl)-1H-indole-6-carboxylicacid (tetrahydro-pyran-4-yl)-amide] | 0.00545 µM | 0.00545 µM
Cc1onc(-c2ccc(F)cc2)c1C(=O)c1c[nH]c2cc(C(=O)NCCc3cnc[nH]3)ccc12 [Example 12, 3-[3-(4-Fluoro-phenyl)-5-methyl-isoxazole-4-carbonyl]-1H-indole-6-carboxylicacid [2-(1H-imidazol-4-yl)-ethyl]-amide] | 0.0026 µM | 0.0026 µM
Cc1onc(-c2ccc(F)cc2)c1C(=O)c1c[nH]c2cc(C(=O)NCc3ccccn3)ccc12 [Example 13, 3-[3-(4-Fluoro-phenyl)-5-methyl-isoxazole-4-carbonyl]-1H-indole-6-carboxylicacid (pyridin-2-ylmethyl)-amide] | 0.00565 µM | 0.00565 µM
